Experimental data reported in PMC12406196, “Anticoronavirus Activity of Uridine Glycoconjugates Containing a 1,2,3-Triazole Moiety” (Journal of Medicinal Chemistry, 2025).

Each compound was assayed on SARS-CoV-2 S protein (S2 domain). Settings: Western blot with S2-specific antibodies.
Format: cell-based

| SMILES | S2 domain levels in the medium of SC-VLP-producing cells |
| --- | --- |
| CC(=O)OC[C@H]1O[C@@H](OCc2cn(C[C@H]3O[C@@H](n4ccc(=O)[nH]c4=O)[C@H](O[Si](C)(C)C(C)(C)C)[C@@H]3O[Si](C)(C)C(C)(C)C)nn2)[C@H](OC(C)=O)[C@@H](OC(C)=O)[C@H]1OC(C)=O [Compound 15, 2′,3′-di-O-tert-Butyldimethylsilyl-5′-deoxy-5′-[4-(2″,3″,4″,6″-tetra-O-acetyl-β-D-galactopyranosyloxymethyl)-1,2-3-triazol-1-yl]-uridine] | minor alterations |
| CC(=O)OC[C@H]1O[C@@H](SCn2cc(COC[C@H]3O[C@@H](n4ccc(=O)[nH]c4=O)[C@H](O[Si](C)(C)C(C)(C)C)[C@@H]3O[Si](C)(C)C(C)(C)C)nn2)[C@H](OC(C)=O)[C@@H](OC(C)=O)[C@@H]1OC(C)=O [Compound 24, 2′,3′-di-O-tert-Butyldimethylsilyl-5′-O-[(1-(2″,3″,4″,6″-tetra-O-acetyl-β-D-glucopyranosylthiomethyl)-1,2-3-triazol-4-yl)-methyl]-uridine] | minor alterations |
| CC(=O)OC[C@H]1O[C@@H](SCc2cn(C[C@H]3O[C@@H](n4ccc(=O)[nH]c4=O)[C@H](O[Si](C)(C)C(C)(C)C)[C@@H]3O[Si](C)(C)C(C)(C)C)nn2)[C@H](OC(C)=O)[C@@H](OC(C)=O)[C@@H]1OC(C)=O [Compound 20, 2′,3′-di-O-tert-Butyldimethylsilyl-5′-deoxy-5′-[4-(2″,3″,4″,6″-tetra-O-acetyl-β-D-glucopyranosylthiomethyl)-1,2-3-triazol-1-yl]-uridine] | minor alterations |
| CC(=O)OC[C@H]1O[C@@H](SCc2cn(C[C@H]3O[C@@H](n4ccc(=O)[nH]c4=O)[C@H](O[Si](C)(C)C(C)(C)C)[C@@H]3O[Si](C)(C)C(C)(C)C)nn2)[C@H](OC(C)=O)[C@@H](OC(C)=O)[C@H]1OC(C)=O [Compound 21, 2′,3′-di-O-tert-Butyldimethylsilyl-5′-deoxy-5′-[4-(2″,3″,4″,6″-tetra-O-acetyl-β-D-galactopyranosylthiomethyl)-1,2-3-triazol-1-yl]-uridine] | more pronounced reduction |
